Assays:
DU-145 = experiment: NCI-60 DTP human tumor cell line screening; assay type: cell-based; conditions: Prostate cancer DU-145
MCF-7 = experiment: NCI-60 DTP human tumor cell line screening; assay type: cell-based
TK-10 = experiment: NCI-60 DTP human tumor cell line screening; assay type: cell-based
leukemia cell lines = experiment: NCI-60 DTP human tumor cell line screening, leukemia panel; assay type: cell-based; conditions: mean for leukemia cell line panel, read-out: GI 50 mean value
SN 12C = experiment: NCI-60 DTP human tumor cell line screening; assay type: cell-based; conditions: Renal cancer SN 12C
COLO 205 = experiment: NCI-60 DTP human tumor cell line screening; assay type: cell-based; conditions: Colon cancer COLO 205
IGROV1 = experiment: NCI-60 DTP human tumor cell line screening; assay type: cell-based; conditions: Ovarian cancer IGROV1
MALME-3M = experiment: NCI-60 DTP human tumor cell line screening; assay type: cell-based; conditions: Melanoma MALME-3M
A549/ATCC = experiment: NCI-60 DTP human tumor cell line screening; assay type: cell-based; conditions: Non-small cell lung cancer A549/ATCC
MDA-MB-468 = experiment: NCI-60 DTP human tumor cell line screening; assay type: cell-based
786-0 = experiment: NCI-60 DTP human tumor cell line screening; assay type: cell-based; conditions: Renal cancer 786-0
BT-549 = experiment: NCI-60 DTP human tumor cell line screening; assay type: cell-based; conditions: Breast cancer BT-549
HCC-2998 = experiment: NCI-60 DTP human tumor cell line screening; assay type: cell-based; conditions: Colon cancer HCC-2998
HL-60 (TB) = experiment: NCI-60 DTP human tumor cell line screening; assay type: cell-based
HCT-15 = experiment: NCI-60 DTP human tumor cell line screening; assay type: cell-based; conditions: Colon cancer HCT-15
HT29 = experiment: NCI-60 DTP human tumor cell line screening; assay type: cell-based
A498 = experiment: NCI-60 DTP human tumor cell line screening; assay type: cell-based; conditions: Renal cancer A498
EKVX = experiment: NCI-60 DTP human tumor cell line screening; assay type: cell-based; conditions: Non-small cell lung cancer EKVX
K-562 = experiment: NCI-60 DTP human tumor cell line screening; assay type: cell-based
NCI/ADR-RES = experiment: NCI-60 DTP human tumor cell line screening; assay type: cell-based
SK-MEL-5 = experiment: NCI-60 DTP human tumor cell line screening
NCI-H522 = experiment: NCI-60 DTP human tumor cell line screening; assay type: cell-based; conditions: Non-small cell lung cancer NCI-H522
RXF 393 = experiment: NCI-60 DTP human tumor cell line screening; assay type: cell-based; conditions: Renal cancer RXF 393
M-14 = experiment: NCI-60 DTP human tumor cell line screening; assay type: cell-based; conditions: Melanoma M-14
UO-31 = experiment: NCI-60 DTP human tumor cell line screening; assay type: cell-based; conditions: Renal cancer UO-31
OVCAR-5 = experiment: NCI-60 DTP human tumor cell line screening; assay type: cell-based; conditions: Ovarian cancer OVCAR-5
HOP-92 = experiment: NCI-60 DTP human tumor cell line screening; assay type: cell-based; conditions: Non-small cell lung cancer HOP-92
SR = experiment: NCI-60 DTP human tumor cell line screening; assay type: cell-based; conditions: Leukemia SR
HCT-116 = experiment: NCI-60 DTP human tumor cell line screening; assay type: cell-based; conditions: Colon cancer HCT-116
RPMI-8226 = experiment: NCI-60 DTP human tumor cell line screening; assay type: cell-based; conditions: Leukemia RPMI-8226
SF-268 = experiment: NCI-60 DTP human tumor cell line screening; assay type: cell-based; conditions: CNS cancer SF-268
MOLT-4 = experiment: NCI-60 DTP human tumor cell line screening; assay type: cell-based; conditions: Leukemia MOLT-4
SF-295 = experiment: NCI-60 DTP human tumor cell line screening; assay type: cell-based; conditions: CNS cancer SF-295

Which results are given for NC(=NS(=O)(=O)c1ccccc1Cl)c1ccc2ccccc2n1 [Compound 15, N′-(2-Chlorophenylsulfonyl)quinoline-2-carboximidamide]?
GI50 (DU-145; Homo sapiens): 4.96 µM; TGI (DU-145): ^c (Determined TGI values were >100 μM); TGI (MCF-7; Breast cancer MCF-7): ^c (Determined TGI values were >100 μM); inhibition at 10 µM (MCF-7; Homo sapiens, MCF7, read-out: Growth inhibition ΔGI): 15.7%; GI50 (MCF-7; Homo sapiens, MCF7, Breast cancer MCF-7): 3.28 µM; inhibition at 10 µM (TK-10; Homo sapiens, TK-10, read-out: Growth inhibition ΔGI): 21.7%; GI50 (TK-10; Homo sapiens, Renal cancer TK-10): 6.02 µM; TGI (TK-10; Renal cancer TK-10): 7.08 µM; GI50 (leukemia cell lines): 3.52 µM; GI50 (SN 12C; Homo sapiens, SN12C): 7.67 µM; TGI (SN 12C): ^c (Determined TGI values were >100 μM); TGI (COLO 205): 16.00 µM; GI50 (COLO 205; Homo sapiens): 3.68 µM; GI50 (IGROV1; Homo sapiens, IGROV-1): 9.42 µM; TGI (IGROV1): ^c (Determined TGI values were >100 μM); GI50 (MALME-3M; Homo sapiens): 5.42 µM; TGI (MALME-3M): ^c (Determined TGI values were >100 μM); GI50 (A549/ATCC; Homo sapiens): 5.37 µM; TGI (A549/ATCC): ^c (Determined TGI values were >100 μM); TGI (MDA-MB-468; Breast cancer MDA-MB-468): 6.19 µM; inhibition at 10 µM (MDA-MB-468; Homo sapiens, MDA-MB-468, read-out: Growth inhibition ΔGI): 42.2%; GI50 (MDA-MB-468; Homo sapiens, Breast cancer MDA-MB-468): 2010 nM; GI50 (786-0; Homo sapiens): 4.94 µM; TGI (786-0): ^c (Determined TGI values were >100 μM); TGI (BT-549): 56.00 µM; GI50 (BT-549; Homo sapiens): 5.08 µM; TGI (HCC-2998): 59.40 µM; GI50 (HCC-2998; Homo sapiens): 9.63 µM; inhibition at 10 µM (HL-60 (TB); Homo sapiens, HL-60, read-out: Growth inhibition ΔGI): 19.7%; GI50 (HL-60 (TB); Homo sapiens, Leukemia HL-60 (TB)): 2290 nM; TGI (HL-60 (TB); Leukemia HL-60 (TB)): 8.41 µM; TGI (HCT-15): ^c (Determined TGI values were >100 μM); GI50 (HCT-15; Homo sapiens): 4.23 µM; TGI (HT29; Colon cancer HT29): 14.90 µM; inhibition at 10 µM (HT29; Homo sapiens, HT-29, read-out: Growth inhibition ΔGI): 60.4%; GI50 (HT29; Homo sapiens, HT-29, Colon cancer HT29): 3.4 µM; GI50 (A498; Homo sapiens): 8.08 µM; TGI (A498): ^c (Determined TGI values were >100 μM); GI50 (EKVX; Homo sapiens): 8.75 µM; TGI (EKVX): ^c (Determined TGI values were >100 μM); inhibition at 10 µM (K-562; Homo sapiens, K562, read-out: Growth inhibition ΔGI): 35.9%; GI50 (K-562; Homo sapiens, K562, Leukemia K-562): 3.11 µM; TGI (K-562; Leukemia K-562): ^c (Determined TGI values were >100 μM); inhibition at 10 µM (NCI/ADR-RES; Homo sapiens, NCI/ADR-RES, read-out: Growth inhibition ΔGI): 42.9%; GI50 (NCI/ADR-RES; Homo sapiens, Ovarian cancer NCI/ADR-RES): 2320 nM; TGI (NCI/ADR-RES; Ovarian cancer NCI/ADR-RES): 50.50 µM; GI50 (SK-MEL-5; Homo sapiens, SK-MEL-5): 3.31 µM; CC50 (SK-MEL-5; Homo sapiens, SK-MEL-5, read-out: LC 50): 36.2 µM; TGI (SK-MEL-5; Melanoma SK-MEL-5): 50.50 µM; GI50 (NCI-H522; Homo sapiens): 2280 nM; TGI (NCI-H522): 7.62 µM; GI50 (RXF 393; Homo sapiens): 4.02 µM; TGI (RXF 393): 35.90 µM; GI50 (M-14; Homo sapiens, M14): 3.61 µM; TGI (M-14): ^c (Determined TGI values were >100 μM); GI50 (UO-31; Homo sapiens): 7.26 µM; TGI (UO-31): 48.50 µM; GI50 (OVCAR-5; Homo sapiens): 7.71 µM; TGI (OVCAR-5): ^c (Determined TGI values were >100 μM); GI50 (HOP-92; Homo sapiens): 9.34 µM; TGI (HOP-92): 90.80 µM; GI50 (SR; Homo sapiens): 920 nM; TGI (SR): 21.40 µM; TGI (HCT-116): ^c (Determined TGI values were >100 μM); GI50 (HCT-116; Homo sapiens): 4.66 µM; GI50 (RPMI-8226; Homo sapiens): 5.27 µM; TGI (RPMI-8226): ^c (Determined TGI values were >100 μM); TGI (SF-268): ^c (Determined TGI values were >100 μM); GI50 (SF-268; Homo sapiens): 6.79 µM; GI50 (MOLT-4; Homo sapiens): 5.91 µM; TGI (MOLT-4): ^c (Determined TGI values were >100 μM); TGI (SF-295): 86.30 µM; GI50 (SF-295; Homo sapiens): 3.83 µM

Reference: publication PMC4494771, “Synthesis, structure, and biological activity of novel heterocyclic sulfonyl-carboximidamides” (Monatshefte Fur Chemie, 2013)
